Results: US7612225B2, “Crystal of triterpene derivative” (Shionogi & Co., Ltd., priority 2004, dated 2009)

Tests used:
[1] = Storage stability (40° C., 75% RH, 6 months; HPLC); type: physicochemical
Experimental: The form I dry crystals and the form II crystals of Compound (I) were used as samples. About 3 g of each of the samples was placed in a double polyethylene bag, and the bag containing the sample was stored in an aluminum can at 40° C. and 75% RH. After storage for 6 months, the amount of Compound (I) and the total amount of related substances of Compound (I) were measured by HPLC.

[2] = Stability against light (30±2° C., 1,200,000 or 3,600,000 Lux·hr; HPLC); type: physicochemical; settings: for change of total amount of related substances of Compound (I) (in words): after storage under light of 1,200,000 or 3,600,000 Lux·hr
Experimental: The form I dry crystals and the form II crystals of Compound (I) were used as samples. About 3 g of each of the samples was placed in each petri dish, and was then stored at an average temperature of 30±2° C. under light of 1,200,000 Lux·hr or 3,600,000 Lux·hr. After storage, the amount of Compound (I) and the total amount of related substances of Compound (I) were measured by HPLC.

[3] = 6 months at 40° C. and 75% RH, double polyethylene bag in aluminum can
[4] = 1,200,000 Lux·hr, 30±2° C., petri dish

Structure (SMILES) | Amount of analogue B ([1]; 6 months at 40° C. and 75% RH) | Total amount of related substances(%) ([1]; 6 months at 40° C. and 75% RH) | storage stability (in words) ([1]; 6 months at 40° C. and 75% RH) | Amount of Compound (I)(%) [1, 3] | Amount of Compound (I)(%) ([1]; Initial value) | Amount of analogue B ([1]; Initial value) | Total amount of related substances(%) ([1]; Initial value) | change of total amount of related substances of Compound (I) (in words) ([1]; after storage for 6 months at 40° C. and 75% RH, listed as form II crystals) | Total amount of related substances(%) ([2]; 1,200,000 Lux·hr, 30±2° C.) | Amount of Compound (I)(%) [2, 4] | Total amount of related substances(%) ([2]; 3,600,000 Lux·hr, 30±2° C.) | Amount of Compound (I)(%) ([2]; 3,600,000 Lux·hr, 30±2° C., petri dish) | Amount of Compound (I)(%) ([2]; Initial value) | Total amount of related substances(%) ([2]; Initial value) | change of total amount of related substances of Compound (I) (in words) ([2]; listed as form II crystals) | stability against light (in words) ([2]; light of 1,200,000 or 3,600,000 Lux·hr) | change of amount of analogue B (in words) ([1]; after storage for 6 months at 40° C. and 75% RH) | change of total amount of related substances of Compound (I) (in words) ([1]; after storage for 6 months at 40° C. and 75% RH, listed as form I dry crystals) | change of total amount of related substances of Compound (I) (in words) ([2]; listed as form I dry crystals)
CC1(C)CC[C@]2(C(=O)O)CC[C@]3(COC(=O)/C=C/c4cc(O)ccc4NC(=O)/C=C/C(=O)O)C(=CCC4[C@@]5(C)CCC(=O)C(C)(C)C5CC[C@]43C)C2C1 (some centres unmarked) [Form II crystal] | <0.05% | 0.17% | stable | 98.6% | 98.9% | <0.05% | 0.21% | hardly changed | 0.17% | 99.4% | 0.18% | 99.3% | 100.3% | 0.15% | hardly changed | stable against light |  |  | 
CC1(C)CC[C@]2(C(=O)O)CC[C@]3(COC(=O)/C=C/c4cc(O)ccc4NC(=O)/C=C/C(=O)O)C(=CCC4[C@@]5(C)CCC(=O)C(C)(C)C5CC[C@]43C)C2C1 (some centres unmarked) [Form I dry crystal, reference compound] | 0.21% | 0.43% |  | 97.8% | 99.8% | <0.05% | 0.16% |  | 0.27% | 99.2% |  |  | 99.8% | 0.16% |  |  | significantly increased | increased | increased
